# From patent US20090215884A1, “METHOD FOR WOUND HEALING” (priority 2005, published 2009)
# Assays:
# dermal fibroblasts = test: MTT cell viability and proliferation, dermal fibroblasts; format: cell-based, human
# Excerpt: A normal adult skin biopsy (6 mm) was obtained (n=1), with informed consent, from an individual attending the Oral Surgery Clinic, School of Dentistry, Wales College of Medicine, Cardiff. Following the application of a local anaesthetic, the dermal biopsy was collected and adult dermal fibroblast cultures established by single cell suspension technique, following enzymic degradation of the specimen. This technique has previously been reliably used to establish viable primary cultures of both oral and dermal fibroblasts in vitro (Cook et al, 2000; Stephens et al, 2001; 2003). Dermal fibroblasts were cultured in Fibroblast-Serum Containing Medium, containing Dulbecco's Modified Eagle's Medium (DMEM), supplemented with L-glutamine (2 mM), antibiotics (100 U/ml penicillin G sodium, […] streptomycin sulphate and 0.25 μg/ml amphotericin B) and 10% fetal calf serum (all purchased from Invitrogen Ltd., Paisley, U.K.). Dermal fibroblast cultures were maintained at 37° C., in a 5% CO2/95% air atmosphere, with the culture medium being changed every 2-3 days. Dermal fibroblasts were used between passage 7-17, for all experiments.
# Prior to use, the PEP005/DMSO stock solution was removed from 4° C. storage and warmed to room temperature. The required volumes of PEP005/DMSO were aliquoted into a poly-propylene vessel and the PEP005/DMSO diluted to the required concentration (typically 0.01 μg/ml, 0.1 μg/ml, 1 μg/ml, 10 μg/ml and […]) in Fibroblast-Serum Containing Medium (for dermal fibroblast cultures) or serum-free, EpiLife® Medium (for epidermal keratinocyte cultures), with fresh PEP005/culture medium solutions being prepared daily, at the various concentrations above, due to solution stability. Prior to discarding PEP005/culture medium solutions, at least two volumes of 0.1% sodium hydroxide (Sigma Chemical Co.), in 95% ethanol/5% methanol (both from Fisher Scientific, Leicestershire, U.K.), was added to each solution, to decontaminate.
# The MTT [3-(4,5-dimethyl-2-thiazolyl)-2,5-diphenyltetrazolium bromide] dye-reduction assay was employed for the assessment of dermal fibroblast and epidermal keratinocyte cell viability and proliferation, according to Cook et al (2000). Following trypzinisation, dermal fibroblast or epidermal keratinocyte were seeded in 96-well microtitre plates (VWR International Ltd., Leicestershire, U.K.), at a cell density of 2.5×10^3 cell/well and 5×10^3 cell/well, respectively. Following cell seeding for 24 h and 48 h, respectively, the dermal fibroblast and epidermal keratinocyte culture medium were replaced with culture medium (100 μl/well), containing 0, 0.01 μg/ml, 0.1 μg/ml, 1 μg/ml, 10 μg/ml or 100 μg/ml PEP005 (six culture wells per PEP005 concentration). […]
# fibroblasts = test: Cytokine production by PEP005-treated human fibroblasts; format: cell-based; conditions: 6 h, supernatant
# Experimental: Cytokine production by PEP005-treated human cells Confluent cultures of Me10538 cells, keratinocytes, fibroblasts and neutrophils were incubated for 6 h in the absence or presence of PEP005 (1-100 ng/ml). The supernatants were harvested and analyzed for the presence of the following cytokines; TNF-α, IL-6 and IL-8 using a multiplex detection kit (Biosource International, Nivelles, Belgium). Units of detected proteins are pg/ml.
smiles,measurement,setting,value
"C/C=C(/C)C(=O)O[C@H]1C(C)=C[C@]23C(=O)[C@@H](C=C(CO)[C@@H](O)[C@]12O)[C@H]1[C@@H](C[C@H]3C)C1(C)C [PEP005, ingenol-3-angelate]",dermal fibroblast cell viability/proliferation (MTT),"dermal fibroblasts; 0.01 μg/ml PEP005, day 7",appeared to stimulate cell viability/proliferation
same,dermal fibroblast cell viability/proliferation (MTT),"dermal fibroblasts; 0.1 μg/ml PEP005, day 7",appeared to stimulate cell viability/proliferation
same,dermal fibroblast cell viability/proliferation (MTT),"dermal fibroblasts; 10 μg/ml PEP005, days 1, 3 and 5",stimulatory effect
same,dermal fibroblast cell viability/proliferation (MTT),"dermal fibroblasts; 100 μg/ml PEP005, compared to untreated fibroblast controls",cytotoxic effect
same,IL-6,fibroblasts; PEP005 1 ng/ml,81 ± 4 pg/mL
same,IL-8,fibroblasts; PEP005 1 ng/ml,79 ± 3 pg/mL
same,IL-6,fibroblasts; PEP005 5 ng/ml,85 ± 4 pg/mL
same,IL-8,fibroblasts; PEP005 5 ng/ml,160 ± 14 pg/mL
same,IL-6,fibroblasts; PEP005 10 ng/ml,141 ± 6 pg/mL
same,IL-8,fibroblasts; PEP005 10 ng/ml,215 ± 12 pg/mL
same,IL-6,fibroblasts; PEP005 100 ng/ml,205 ± 5 pg/mL
same,IL-8,fibroblasts; PEP005 100 ng/ml,239 ± 9 pg/mL
